# Measurements taken from a melting point compilation (Tetko et al.; mined from patent text by program, amines drawn as free bases though some values may be those of a salt).
row,Compound,melting point
1,CC(=O)Nc1cc(C(=O)c2ccc(S(=O)(=O)CCO)c(NC(C)=O)c2)ccc1S(=O)(=O)CCO,189 to 192 °C
2,COc1cc(O)cc2c1C(Br)=C(c1ccc(O)cc1)C2=O,210 °C
3,COc1ccc(C(=O)Nc2ccc(COc3ccc4c(c3)CCC(CN(C)C)C4)cc2)cc1 (stereo not given),155 to 159 °C
4,FC(F)(F)CSC1(c2cccc(OCc3ccc4ccccc4c3)c2)CCOCC1,76 to 78 °C
5,CCc1nsc(C(=O)NC(C)C)c1C(=O)OC,55 to 56 °C
6,COc1ccc(CC(C)NCC(O)c2ccccc2Cl)cc1OC (stereo not given),113 to 114 °C
7,Cc1ccc(N2CN(c3ccccc3)C3=NN=CC3=C2Cl)cc1,177 to 179 °C
8,CC1(CF)C=C(C(=O)NCCC#N)c2cc([N+](=O)[O-])ccc2O1 (stereo not given),165 to 167 °C
9,O=C(NCCCO)c1cccc(-c2cccc(Oc3cc(Cl)cc(Cl)c3)n2)c1,101 to 102 °C
10,O=C(O)C(=O)CC(=O)c1cccn1Cc1cc(F)c(F)cc1F,154 to 156 °C
11,O=C(O)c1cccc(C(=O)C=Cc2ccc(OCc3ccccc3)cc2)c1O,174 to 175 °C
12,CC(C)OC(=O)C=C1CN=C(c2ccccc2F)c2cc(Cl)ccc2N1,144 to 145 °C
13,CC(C)CCC(O)C(C)C1CC=C2C3=C(CCC21C)C1(C)CCC(OC(=O)c2ccccc2)C(C)(C)C1CC3 (stereo not given),142 to 143 °C
14,CC12CC(=O)C3C(CCC4CC(O)CCC43C)C1CCC2C(=O)COc1ccc([N+](=O)[O-])cc1 (stereo not given),186 to 187 °C
15,O=C(Nc1ccc2c(c1)nc1n2CCC1)c1cc2nc(C(F)(F)F)ccc2n1Cc1ccncc1,130 to 131 °C
16,Cc1oc(-c2ccc(C(F)(F)F)cc2)nc1CCOc1ccc(CN(O)C(N)=O)cc1,156 to 157 °C
17,CC(=NO)C(=O)c1ccc(NS(C)(=O)=O)c(Sc2ccc(F)cc2F)c1,140 to 143 °C
18,COc1cc(C=Nc2cc(Cl)c(N=CN(C)C)c(Cl)c2)cc(OC)c1,133 to 135 °C
19,O=P1(c2cccc(F)c2)c2ccccc2CN1c1ccccc1 (stereo not given),209 to 210 °C
20,CCC(CC)CCc1nn(C)c2cc(C(=O)OC)ccc12,91 to 93 °C
21,O=C(O)COc1cc(Cl)ccc1C(=O)NCc1cccc([N+](=O)[O-])c1,200 °C
22,O=c1c2ccccc2[nH]c2c(OCCN(CCCl)CCCl)cccc12,131 to 133 °C
23,CCc1nnc(-c2ccc(-c3ccccc3)nc2)n1-c1cccc(C(N)=O)c1C,162 to 163 °C
24,O=CN[C@H]1CC[C@H](CCN2CCN(c3nccc4c3OCC4)CC2)CC1,154 °C

row,Compound,melting point
1,CC(C)(C)SC(=O)C=CC1C(C(=O)OCc2ccc(F)c(Oc3ccccc3)c2)C1(C)C (stereo not given),82 °C
2,CCn1cc(C(=O)NCc2ccc(Cl)cc2)c(=O)c2cc(CN(C)C[C@@H](O)c3ccco3)sc21,123 to 127 °C
3,Nc1nc(-c2ccc(F)cc2)c(CC(=O)O)s1,267 to 268 °C
4,Clc1ccc(C2(Cn3cncn3)OC2c2ccc(Cl)cc2Cl)cc1 (stereo not given),119 °C
5,NC(=O)c1cccc(OCCOC2CCNCC2)c1,144 to 146 °C
6,COc1ccc(C=CC(=O)Oc2cc3c(cc2OC)CC2c4cc(OC)c(OC)cc4CCN2C3)cc1OC (stereo not given),224 to 225 °C
7,CS(=O)(=O)c1ccc(C(=O)c2cc(-c3ccccc3)c(N3CCOCC3)s2)cc1,175 °C
8,CCO[C@@H]1C[C@H](C(=O)Nc2ccc(N3CCOCC3=O)c(C)c2)N(C(=O)Nc2ccc(Cl)cc2)C1,117 °C
9,O=c1c2cccc3cccc(c32)c2nc3cc(C(F)(F)F)ccc3n12,212 to 214 °C
10,O=C(CC(CC1CCCCC1)C(=O)O)c1ccco1 (stereo not given),91 to 94 °C
11,C=CCNc1c(C(N)=O)cnc2cn[nH]c12,254 to 258 °C
12,CCC(O)(c1ccc(O)cc1O)c1ccccc1OC (stereo not given),141 to 142 °C
13,C#CCN(c1ccc(C(=O)O)cc1)C1CCc2cc3nc(C)[nH]c(=O)c3cc21 (racemic),264 °C
14,O=C(O)C1=Cc2cc(Cl)cc(-c3nc4ccccc4[nH]3)c2OC1C(F)(F)F (stereo not given),> 300 °C
15,Cc1ccc(-c2c(C(=O)NCc3cc(C(F)(F)F)cc(C(F)(F)F)c3)n(CCCCCO)c(=O)c3ncccc23)cc1,136 to 137 °C
16,CCc1nc2c(N)nc3ccccc3c2o1,175 to 178 °C
17,CNC[C@@H](O)c1cc2ccccc2o1,88 to 90 °C
18,COc1cccc2c1CCC21NC(=O)c2ccccc21 (stereo not given),222 to 224 °C
19,CC(C)C[C@H](NC(=O)c1ccc(Cl)cc1)C(=O)N[C@@H](C(C)C)[C@@H](O)c1c(-c2ccccc2)c1=O,116 to 120 °C
20,Oc1ccc(C2CC(c3ccc(O)cc3)C2)cc1 (stereo not given),148 to 164 °C
21,OC(CN1CCCCC1)c1cc(C(F)(F)F)nc2c(C(F)(F)F)cccc12 (stereo not given),130 °C
22,COc1ccc(-c2ccccc2-c2ccc(S(N)(=O)=O)cc2)cc1Cl,180 °C
23,Cc1nc(-c2ccccc2)c(CC(C)(C)C(=O)O)o1,129 to 130 °C

# Other lines, results leading:
row,melting point,Compound
1,198 °C,Clc1cnc2c(C(Cl)(Cl)Cl)cc(Cl)cc2c1
2,198 °C,Cc1cc(C)cc(NCc2ccc3nc(NCC(O)CN4CCOCC4)n(Cc4nc(C)ccc4O)c3c2)c1 (stereo not given)
3,311 to 314 °C,Cc1ccc(OC2CCN(C(=O)C(=O)Nc3ccc4nc(S)[nH]c4c3)CC2)cc1
4,202 to 204 °C,O=C(c1cnccn1)N1CCN(Cc2ccc3c(c2)Cc2c(-c4ccsc4)n[nH]c2-3)CC1
5,174 °C,CCOC(=O)c1cccc(C(OC(=O)Nc2ccc3[nH]ncc3c2)[C@@H]2CCCCN2)c1 (stereo not given in full)
6,134 to 137 °C,COCCOc1cc2ncnc(NC3=CC(=O)C(Oc4ccccc4C)=CC3=O)c2cc1OC
7,99 to 100 °C,CCC(CC)C(c1ccnn1-c1ccccc1)N(C)S(=O)(=O)c1cc(Cl)c(Cl)s1 (stereo not given)
8,226 to 227 °C,COc1ccc(OC)c2[nH]c(-c3ccccc3)nc12
9,131 °C,O=S(=O)(c1ccc(Br)cc1)N1CCCC1c1ccc(F)cc1 (racemic)
10,205 to 207 °C,COC(=O)c1ccc(N2CCN(S(C)(=O)=O)CC2)nc1
11,141 to 142 °C,CC(C)(C)C(F)(F)c1ccc(C[C@@H](C(=O)O)[C@@H](O)c2cccc(Cl)c2)cc1 (racemic)
12,123 to 135 °C,O=C(NCC(=O)N1CCN(C(=O)c2cc(C(F)(F)F)cc(C(F)(F)F)c2)[C@H](Cc2c[nH]c3ccccc23)C1)c1ccccc1
13,157 °C,O=C(Nc1ccc(Cl)c(Cl)c1)N(O)Cc1ccccc1
14,176 to 178 °C,COc1cccc2c1Sc1ccc(C(C)C(=O)O)cc1C(=O)C2 (stereo not given)
15,168 to 171 °C,COc1ccc(-c2cn(-c3nc(C)c(C(=O)NCc4ccccc4)s3)nn2)cc1
16,206 to 208 °C,CCN(Cc1cc(Br)ccc1OCc1ccccc1)c1ccc(-c2nnn[nH]2)cc1
17,196 to 198 °C,CC(=O)NC[C@H]1CN(c2ccc(N3CCC(=C(C#N)n4ccnc4)CC3)c(F)c2)C(=O)O1
18,212 °C,Cc1ccnc(N2CCN(CCCCC3Sc4cc(O)ccc4NC3=O)CC2)c1 (stereo not given)
19,82 °C,O=c1oc2ccccc2c(OCCCN2CCOCC2)c1-c1ccccc1
20,116 to 117 °C,C=Cc1cnc2c([N+](=O)[O-])cccc2c1
21,177 to 178 °C,CCCc1nc(C(C)C)c(C(=O)OCc2ccc(-c3ccccc3C(=O)C(=O)O)cc2)[nH]1
22,148 to 156 °C,NC(CCC(=O)O)c1cccs1 (stereo not given)
23,166 to 167 °C,CCOc1c(C(=O)O)oc2c3cc(OC)ccc3n(-c3ccccc3)c12
24,108 to 110 °C,CCCCCCc1cc(C=O)c(O)cc1O
25,> 290 °C,Nc1cc(NC(=O)Nc2ccccc2)ccn1
26,154 to 158 °C,CN1CCCC1=NCCOS(=O)(=O)Oc1c[nH]c2ccccc12
27,140 to 141 °C,COc1ccc(C2(C=O)C=CC=CC2)cc1OCCCN1CCC(c2noc3cc(F)ccc23)CC1 (stereo not given)

row,melting point,Compound
1,156 to 157 °C,CCOC(=O)C(C)(C)n1c(=O)[nH]c2ccsc2c1=O
2,36.3 °C,CCOC(=O)C=Cc1cccc(I)c1
3,112 to 114 °C,CCC(C)(C)NC(Nc1ccc2ncsc2c1)=C(C#N)S(C)(=O)=O
4,134 to 136 °C,COC(=O)Cc1ccc(C(=O)O)cc1
5,175 to 177 °C,CCCOc1ccc2nc(NC(=O)OCC)sc2c1
6,69 to 70 °C,CCCCCCCOC(=O)Cc1nc(-c2ccc(Cl)cc2)oc1-c1ccco1
7,183 to 185 °C,COC(c1ccccc1)n1cnc2c(-c3cccs3)nc(Cl)nc21 (stereo not given)
8,221 to 222 °C,O=C(c1cccc(Cl)c1)N1CCc2cc(S(=O)(=O)N3CCN(c4cccc(Cl)c4)CC3)ccc21
9,37 °C,CCOc1ccc(CCc2ccc(OC(F)F)cc2)cc1
10,175 to 177 °C,O=C(c1ccc2c(c1)OCC(c1ccccc1)=N2)N1CCOCC1
11,115 to 118 °C,FC(F)(F)CNc1nc(Cl)nc(Cl)n1
12,148 to 151 °C,CS(=O)(=O)Nc1ccc([N+](=O)[O-])cc1Br
13,52 to 54 °C,OC1CCN(Cc2ccc(Br)cn2)CC1
14,187 °C,Cc1nnsc1C(=O)NS(C)(=O)=O
15,86 to 88 °C,CCCCCCCCCCCCCCCCSCC(CNS(=O)(=O)CCCCl)NC(C)=O (stereo not given)
16,103 to 105 °C,CC(C)(C)[Si](Oc1ccc(C=O)cc1)(c1ccccc1)c1ccccc1
17,115 to 118 °C,Nc1ccc(Cc2ccc(CS(=O)(=O)NCc3ccccc3)cc2)cc1
18,74.5 to 77 °C,Cc1cccc(C#N)c1[N+](=O)[O-]
19,129 to 131 °C,Cc1cc(OCCOc2ccc3ccccc3c2)ccc1C(=O)C(=O)O
20,239 to 240 °C,NC(=O)c1ncn2c(-c3cccc(C(F)(F)F)c3)ccnc12
21,89 to 90 °C,CCOc1nn(-c2ccc(C(F)(F)F)cn2)cc1CCOc1cccc(OC(C)(C)C(=O)O)c1
22,144 to 152 °C,CN(C)c1c[nH]c2ncccc12
23,209 to 210 °C,Oc1c(C23CC4CC(CC(C4)C2)C3)ccc2ccccc12
24,118 to 120 °C,N#CC=Cc1ccc(Cc2ncc[nH]2)cc1
25,163 to 164 °C,O=P(O)(O)Cc1cccc(C(F)(F)F)c1
26,130 to 132 °C,COC(=O)c1ccc(Br)c(O)c1
